According to article PMC10507085, “Pharmacological inhibition of TBK1/IKKε blunts immunopathology in a murine model of SARS-CoV-2 infection” (Nature Communications, 2023):

Key:
Assay in all cases: biochemical
Parameters in all cases: KINOMEscan competition binding, DNA-tagged kinase against immobilised ligand, qPCR read-out
Details in all cases: read-out: Percent Control
ACVR1 = ACVR1 (Homo sapiens, UniProt Q04771)
CSNK2A2 = CSNK2A2 (Homo sapiens, UniProt P19784)
EPHA4 = EPHA4 (Homo sapiens, UniProt P54764)
EPHA6 = EPHA6 (Homo sapiens, UniProt Q9UF33)
FES = FES (Homo sapiens, UniProt P07332)
GSK3A = GSK3A (Homo sapiens, UniProt P49840)
GSK3A, sequence (P49840 whole entry): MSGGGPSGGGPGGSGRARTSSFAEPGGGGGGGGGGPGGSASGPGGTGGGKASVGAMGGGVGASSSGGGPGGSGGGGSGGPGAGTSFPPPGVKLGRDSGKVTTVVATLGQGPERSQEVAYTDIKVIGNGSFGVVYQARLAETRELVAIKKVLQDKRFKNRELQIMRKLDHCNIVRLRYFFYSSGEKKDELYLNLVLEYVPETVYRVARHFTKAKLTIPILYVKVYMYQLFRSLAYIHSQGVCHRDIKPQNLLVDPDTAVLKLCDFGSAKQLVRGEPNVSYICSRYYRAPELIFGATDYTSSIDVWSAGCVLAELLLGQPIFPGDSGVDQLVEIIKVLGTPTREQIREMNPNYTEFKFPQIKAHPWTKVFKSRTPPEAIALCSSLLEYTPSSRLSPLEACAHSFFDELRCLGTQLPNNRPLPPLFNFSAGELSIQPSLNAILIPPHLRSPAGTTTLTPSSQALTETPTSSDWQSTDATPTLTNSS

LATS1 = LATS1 (Homo sapiens, UniProt O95835)
LATS1, sequence (O95835 whole entry): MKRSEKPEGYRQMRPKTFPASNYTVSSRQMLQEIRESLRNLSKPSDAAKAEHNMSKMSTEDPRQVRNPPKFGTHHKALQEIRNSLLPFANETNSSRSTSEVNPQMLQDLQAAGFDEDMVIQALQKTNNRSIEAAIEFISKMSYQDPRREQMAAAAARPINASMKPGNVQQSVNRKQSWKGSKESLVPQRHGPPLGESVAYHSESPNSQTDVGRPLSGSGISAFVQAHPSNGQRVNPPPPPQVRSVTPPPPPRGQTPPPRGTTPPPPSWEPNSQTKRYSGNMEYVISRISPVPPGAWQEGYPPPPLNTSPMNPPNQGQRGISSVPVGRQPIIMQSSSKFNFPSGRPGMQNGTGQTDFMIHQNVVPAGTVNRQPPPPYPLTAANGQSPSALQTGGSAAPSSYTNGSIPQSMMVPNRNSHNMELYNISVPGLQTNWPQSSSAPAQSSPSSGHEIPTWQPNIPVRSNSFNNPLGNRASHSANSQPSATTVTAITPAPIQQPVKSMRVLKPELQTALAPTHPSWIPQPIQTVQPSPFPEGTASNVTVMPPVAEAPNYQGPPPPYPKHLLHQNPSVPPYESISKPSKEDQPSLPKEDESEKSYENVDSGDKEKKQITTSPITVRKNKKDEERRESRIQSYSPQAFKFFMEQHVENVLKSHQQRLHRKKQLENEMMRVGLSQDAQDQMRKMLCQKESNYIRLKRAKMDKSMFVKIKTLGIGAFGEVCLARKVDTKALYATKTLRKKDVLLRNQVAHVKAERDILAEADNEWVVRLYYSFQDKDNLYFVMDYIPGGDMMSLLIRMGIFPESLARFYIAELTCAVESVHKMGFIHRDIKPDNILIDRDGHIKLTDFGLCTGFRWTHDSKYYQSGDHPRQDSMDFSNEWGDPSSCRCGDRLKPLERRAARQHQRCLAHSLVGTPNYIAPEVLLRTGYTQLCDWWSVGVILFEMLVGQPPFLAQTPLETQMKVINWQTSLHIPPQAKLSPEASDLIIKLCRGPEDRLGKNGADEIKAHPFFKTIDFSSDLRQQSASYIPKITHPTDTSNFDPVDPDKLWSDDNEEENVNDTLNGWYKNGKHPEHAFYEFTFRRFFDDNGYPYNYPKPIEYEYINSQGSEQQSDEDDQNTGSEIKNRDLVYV

MAP2K3 = MAP2K3 (Homo sapiens, UniProt P46734)
MAP2K6 = MAP2K6 (Homo sapiens, UniProt P52564)
MAP2K7 = MAP2K7 (Homo sapiens, UniProt O14733)
MAP4K3 = MAP4K3 (Homo sapiens, UniProt Q8IVH8)
MGC42105 = molecular target: T1, MGC42105 (Homo sapiens, UniProt Q8IY84)
T1 construct: gene NIM1K
T1 sequence (Q8IY84 whole entry): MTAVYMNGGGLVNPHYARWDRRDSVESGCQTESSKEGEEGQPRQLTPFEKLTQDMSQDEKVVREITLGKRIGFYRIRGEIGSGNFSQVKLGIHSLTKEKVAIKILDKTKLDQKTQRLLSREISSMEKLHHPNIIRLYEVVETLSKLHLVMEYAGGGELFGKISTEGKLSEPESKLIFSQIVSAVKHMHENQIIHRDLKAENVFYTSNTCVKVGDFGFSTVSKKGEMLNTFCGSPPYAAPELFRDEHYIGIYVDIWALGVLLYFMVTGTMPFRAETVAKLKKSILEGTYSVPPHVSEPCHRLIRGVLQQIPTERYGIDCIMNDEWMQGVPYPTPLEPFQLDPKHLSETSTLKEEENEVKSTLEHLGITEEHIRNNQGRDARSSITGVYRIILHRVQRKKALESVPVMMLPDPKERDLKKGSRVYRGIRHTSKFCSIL

NEK3 = NEK3 (Homo sapiens, UniProt P51956)
NEK3, sequence (P51956 whole entry): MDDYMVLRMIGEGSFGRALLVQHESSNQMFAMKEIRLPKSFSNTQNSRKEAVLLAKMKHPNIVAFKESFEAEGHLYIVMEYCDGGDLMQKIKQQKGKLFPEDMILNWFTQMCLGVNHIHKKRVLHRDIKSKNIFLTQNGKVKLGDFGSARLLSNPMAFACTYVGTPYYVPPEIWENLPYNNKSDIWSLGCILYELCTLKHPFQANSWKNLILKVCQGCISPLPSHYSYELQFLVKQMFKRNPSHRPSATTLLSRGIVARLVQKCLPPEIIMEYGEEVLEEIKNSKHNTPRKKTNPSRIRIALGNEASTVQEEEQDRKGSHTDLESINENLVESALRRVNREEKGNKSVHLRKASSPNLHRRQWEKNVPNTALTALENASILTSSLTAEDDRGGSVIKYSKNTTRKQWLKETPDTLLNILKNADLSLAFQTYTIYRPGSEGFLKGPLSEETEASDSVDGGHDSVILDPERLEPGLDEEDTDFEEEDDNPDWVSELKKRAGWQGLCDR

SRPK1 = SRPK1 (Homo sapiens, UniProt Q96SB4)
SRPK3 = SRPK3 (Homo sapiens, UniProt Q9UPE1)
SRPK3, sequence (Q9UPE1 whole entry): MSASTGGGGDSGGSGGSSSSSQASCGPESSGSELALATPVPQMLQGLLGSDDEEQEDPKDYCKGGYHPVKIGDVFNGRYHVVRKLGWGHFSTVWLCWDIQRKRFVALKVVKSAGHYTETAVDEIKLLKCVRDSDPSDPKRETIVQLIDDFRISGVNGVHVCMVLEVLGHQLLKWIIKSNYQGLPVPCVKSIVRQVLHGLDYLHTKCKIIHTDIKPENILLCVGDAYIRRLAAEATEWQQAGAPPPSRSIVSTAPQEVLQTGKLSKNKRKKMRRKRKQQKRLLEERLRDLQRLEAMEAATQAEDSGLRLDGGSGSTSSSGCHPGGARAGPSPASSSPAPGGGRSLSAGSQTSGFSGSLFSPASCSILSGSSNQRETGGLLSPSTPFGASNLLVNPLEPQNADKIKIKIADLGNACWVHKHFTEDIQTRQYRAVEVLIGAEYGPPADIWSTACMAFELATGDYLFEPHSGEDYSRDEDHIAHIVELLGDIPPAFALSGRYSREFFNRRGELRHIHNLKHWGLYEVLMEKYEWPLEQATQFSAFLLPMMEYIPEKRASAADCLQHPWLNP

TEC = TEC (Homo sapiens, UniProt P42680)
TEC, sequence (P42680 whole entry): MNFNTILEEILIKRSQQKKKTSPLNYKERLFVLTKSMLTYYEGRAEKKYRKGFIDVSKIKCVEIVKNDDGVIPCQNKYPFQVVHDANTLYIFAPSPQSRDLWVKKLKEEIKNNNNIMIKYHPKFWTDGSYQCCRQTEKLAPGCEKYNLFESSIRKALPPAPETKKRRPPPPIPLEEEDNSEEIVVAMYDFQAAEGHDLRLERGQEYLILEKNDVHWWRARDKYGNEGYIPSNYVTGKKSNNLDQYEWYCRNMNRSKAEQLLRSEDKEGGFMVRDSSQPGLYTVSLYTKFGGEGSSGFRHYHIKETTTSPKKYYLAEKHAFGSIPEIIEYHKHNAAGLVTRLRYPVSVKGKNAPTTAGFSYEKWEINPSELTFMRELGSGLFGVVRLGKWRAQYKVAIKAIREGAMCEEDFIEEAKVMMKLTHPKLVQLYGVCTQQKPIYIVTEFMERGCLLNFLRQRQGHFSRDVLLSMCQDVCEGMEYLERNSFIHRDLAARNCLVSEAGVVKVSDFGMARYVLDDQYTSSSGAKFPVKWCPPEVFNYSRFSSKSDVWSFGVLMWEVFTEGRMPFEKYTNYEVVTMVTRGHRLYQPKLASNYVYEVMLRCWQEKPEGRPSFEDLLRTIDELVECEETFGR

TSSK1B = TSSK1B (Homo sapiens, UniProt Q9BXA7)
TSSK1B, sequence (Q9BXA7 whole entry): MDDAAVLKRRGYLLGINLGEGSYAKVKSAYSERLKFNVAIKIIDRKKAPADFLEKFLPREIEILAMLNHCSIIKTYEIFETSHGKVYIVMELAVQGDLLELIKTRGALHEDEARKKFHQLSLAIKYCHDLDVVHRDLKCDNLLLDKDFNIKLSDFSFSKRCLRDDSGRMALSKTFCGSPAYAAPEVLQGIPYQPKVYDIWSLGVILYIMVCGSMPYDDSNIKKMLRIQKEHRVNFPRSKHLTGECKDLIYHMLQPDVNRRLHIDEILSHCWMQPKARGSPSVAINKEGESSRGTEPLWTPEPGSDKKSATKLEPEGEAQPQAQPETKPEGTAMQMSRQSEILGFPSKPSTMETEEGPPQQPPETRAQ

TSSK3 = TSSK3 (Homo sapiens, UniProt Q96PN8)
TXK = TXK (Homo sapiens, UniProt P42681)
WNK2 = WNK2 (Homo sapiens, UniProt Q9Y3S1)

ACVR1, sequence (Q04771 whole entry): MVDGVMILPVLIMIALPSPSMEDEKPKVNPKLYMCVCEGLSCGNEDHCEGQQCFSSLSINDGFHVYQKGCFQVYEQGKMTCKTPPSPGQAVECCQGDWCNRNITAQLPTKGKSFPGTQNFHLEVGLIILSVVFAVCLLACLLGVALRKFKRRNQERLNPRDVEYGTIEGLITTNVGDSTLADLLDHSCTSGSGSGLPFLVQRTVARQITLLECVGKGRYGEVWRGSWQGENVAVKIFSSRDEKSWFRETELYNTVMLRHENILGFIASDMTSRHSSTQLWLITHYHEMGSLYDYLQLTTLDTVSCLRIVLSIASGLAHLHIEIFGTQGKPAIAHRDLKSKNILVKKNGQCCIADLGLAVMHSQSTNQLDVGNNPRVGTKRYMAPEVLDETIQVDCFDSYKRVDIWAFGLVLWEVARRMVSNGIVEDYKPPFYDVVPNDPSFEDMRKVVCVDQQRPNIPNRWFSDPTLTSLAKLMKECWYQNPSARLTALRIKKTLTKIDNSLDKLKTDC
CSNK2A2, sequence (P19784 whole entry): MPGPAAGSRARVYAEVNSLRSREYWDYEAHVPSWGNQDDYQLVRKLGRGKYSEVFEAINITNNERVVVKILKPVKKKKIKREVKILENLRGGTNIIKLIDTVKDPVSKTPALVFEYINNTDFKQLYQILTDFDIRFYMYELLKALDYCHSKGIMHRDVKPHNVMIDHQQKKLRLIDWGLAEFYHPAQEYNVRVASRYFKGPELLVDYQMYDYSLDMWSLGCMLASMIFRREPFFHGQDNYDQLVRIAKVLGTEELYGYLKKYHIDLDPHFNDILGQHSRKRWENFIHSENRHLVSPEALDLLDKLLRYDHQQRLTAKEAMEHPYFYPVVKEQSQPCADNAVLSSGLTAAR

Oc1ccc(C2=Cc3ccc(O)cc3OC2)cc1 [compound 1, idronoxil]
remaining binding at 10 µM (ACVR1): 74% | remaining binding at 10 µM (CSNK2A2): 35% | remaining binding at 10 µM (EPHA4): 84% | remaining binding at 10 µM (EPHA6): 99% | remaining binding at 10 µM (FES): 95% | remaining binding at 10 µM (GSK3A): 74% | remaining binding at 10 µM (LATS1): 100% | remaining binding at 10 µM (MAP2K3): 56% | remaining binding at 10 µM (MAP2K6): 85% | remaining binding at 10 µM (MAP2K7): 91% | remaining binding at 10 µM (MAP4K3): 92% | remaining binding at 10 µM (MGC42105): 93% | remaining binding at 10 µM (NEK3): 80% | remaining binding at 10 µM (SRPK1): 100% | remaining binding at 10 µM (SRPK3): 94% | remaining binding at 10 µM (TEC): 93% | remaining binding at 10 µM (TSSK1B): 87% | remaining binding at 10 µM (TSSK3): 59% | remaining binding at 10 µM (TXK): 87% | remaining binding at 10 µM (WNK2): 51%
